Assay results: patent US20070292351A1, “Assay for efficacy of histone deacetylase inhibitors” (Methylgene, Inc., priority 2006, published 2007)

Experiments:
HDAC activity = experiment: Fluorescence-based whole cell HDAC enzyme assay in patients' peripheral white blood cells; format: in vivo, human
Protocol: At day 8 (72 h after the third dose), peripheral white blood cells were tested for HDAC activity by whole cell assay
(§1) Whole blood from either consenting healthy volunteers or consenting patients was centrifuged at 2500 rpm for 10 minutes at ambient temperature in a Sorvall RT-7 centrifuge (Mandel Scientific Co., Guelph, Ontario). Plasma was removed and buffy coat was collected. Five volumes of Erythrocyte Lysis Buffer (EL) (Qiagen Canada Inc., Mississauga, Ontario) were added into buffy coat. Buffy coat was incubated on ice for 20 minutes before it was centrifuged at 400 g for 10 minutes at 4° C. Supernatant was removed and buffy coat was washed twice with EL buffer and re-centrifuged. Buffy coat was resuspended in RPMI media and cells were counted with trypan blue exclusion. To isolate PBMCs, buffy coat cells were centrifuged over Lymphoprep (Axis-Shield, 1114544), and any remaining erythrocytes in the sample were lysed by treatment with EL lysis buffer (Qiagen, 79217). The cell pellets are washed and then re-suspended in RPMI containing 10% FBS.
(§2) Human patients with either solid tumors or leukemia/MDS diseases were enrolled in phase I studies with consensus forms. MGCD0103 were dosed into patients orally every other day (day 1, day 3, day 5 […]). Blood samples were withdrawled by using the Vacutainer sodium-heparin blood collection tubes (Becton Dickinson Laboratories, Franklin Lakes, N.J.) and shipped to the test site within 24 hours on ice-pack. Baseline samples were drawn immediately prior to the first drug dose, while the 24 hour samples were drawn at 24 hours post the first drug dose. The 48 hours samples were drawn at 48 hours post the first dose. For the 1 week samples, blood was drawn 72 hours after day 5 dose (3 accumulated doses during week 1).
Freshly trypsinized cells or cells in suspension were dispensed in 96-well black Costar E1A/RIA plates (Corning Inc., Corning, N.Y.). We typically used 5×10^4 to 2×10^5 cells per well, and 8×10^5 white blood (mouse or human) cells/per well. Small molecule substrate Boc-Lys(Ac)-AMC (Bachem Biosciences Inc., King of Prussia, Philadelphia) were added to cell suspension with the final concentration of 300 uM. Cells were placed in a 37° C. incubator with 5% CO2 for 90 minutes (in the case of white blood cells, we incubated for 60 min). Fluorescence was read immediately before adding stop mixture to get a background. […] Fluorescence was developed for 15 minutes at 37° C. and read in a fluorometer (SPECTRAMAX GeminiXS, Molecular Devices, Sunnyvale, Calif.) with an excitation wavelength at 360 nm, emission at 470 nm, and a cutoff of 435 nm.

[1] = tested on: peripheral white blood cells of patients; experiment: Real time RT-PCR of gene transcription in patients' peripheral white cells in vivo; parameters: species or system human
Protocol: FIG. 8. Induction of MT3 (A) and AREG (B) transcription in vivo in patients with solid tumor who received treatment with MGCD0103 for one week (three doses per week). At day 8 (72 h after the third dose), peripheral white blood cells were isolated and RNA extracted and analyzed by qRT-PCR
FIG. 12. Induction of transcription of three tumor suppressor genes, BTG1, TNFSF9 and p21 in peripheral white cells from Patient A in vivo as determined by real time RT-PCR. Note that both BTG1 and TNFSF9 were identified in FIG. 11 using microarray expression analysis and their expression is confirmed in vivo by real time RT-PCR.
FIG. 13. Induction of transcription of three tumor suppressor genes, BTG1, TNFSF9 and p21 in peripheral white cells from a MDS patient with clinical response (Patient E) and a MDS patient without response (Patient F) in vivo as determined by real time RT-PCR. Blood samples were drawn 48 hr post the 2nd dose in cycle 1.
as §1
(§3) Quantitative PCR with SYBR Green I detection with Mastercycler® ep realplex (Eppendorf) was performed using LightCycler® 480 SYBR Green I Master (Roche Diagnostics). SYBR Green I assays were performed with 600 nM primers. All other reaction conditions were as described by the manufacturer. Amplification conditions were 5 minutes of initial denaturation at 95° C., followed by 40 cycles of each 15 seconds at 95° C., 15 seconds at 63.4° C., 20 seconds at 68° C., a melting curve from 60° C. to 95° C. was recorded. Quantification was performed using Pfaffl method, a relative quantification method in real-time PCR (Nucleic Acids Research 2001 29:2002-2007). Primers were synthesized by Invitrogen (Invitrogen-Canada, Burlington, Ont.).
Human patients with either solid tumors or leukemia/MDS diseases were enrolled in phase I studies with consensus forms. […]

bone marrow blast count = experiment: Bone marrow blast count in AML patient; format: in vivo, human; settings: AML Patient A, 2 cycles of treatment (FIG. 10)
Protocol: FIG. 10. Reduction of bone marrow blast count in Patient A after 2 cycles of MGCD0103 treatment in vivo.
as §2

Jurkat cells = experiment: IL-6 transcription in Jurkat cells; format: cell-based, human; settings: 24 hours (FIG. 14)
Protocol: as §3

peripheral white cells = experiment: Cytokine/chemokine transcription in peripheral white cells of AML patients treated in vivo; parameters: species or system human; settings: for induction of transcription of IL-6, IL-8, IL-1b, MIP1b: in vivo
Protocol: FIG. 15 Induction of transcription of IL-6, IL-8, IL-1b, MIP1b cytokine/chemokines by MGCD0103 in peripheral white cells ex vivo from a MDS patient and in vivo in an AML patient with response (Patient J).
as §1, §2

Nc1ccccc1NC(=O)c1ccc(CNc2nccc(-c3cccnc3)n2)cc1 [MGCD0103]
inhibition of HDAC activity in peripheral white cells (HDAC activity; AML Patient A with clinical response (FIG. 9)): Time-dependent inhibition
HDAC inhibition (HDAC activity; AML patient (Patient A) with clinical response, day 8): 68%
HDAC inhibition in vivo in peripheral white blood cells (HDAC activity; patients with solid tumors, one week (three doses per week), day 8 (FIG. 7)): dose-dependent HDAC inhibition
average HDAC inhibition (HDAC activity; three other AML patients (no response), day 8): < 5%
Induction of transcription of BTG1, TNFSF9 and p21 ([1]; MDS patient with clinical response (Patient E), 48 hr post 2nd dose in cycle 1 (FIG. 13)): Induction
induction of MT3 transcription in vivo ([1]; patients with solid tumors, one week (three doses per week), day 8, qRT-PCR (FIG. 8A)): induction
induction of AREG transcription in vivo ([1]; patients with solid tumors, one week (three doses per week), day 8, qRT-PCR (FIG. 8B)): induction
Induction of transcription of BTG1, TNFSF9 and p21 ([1]; peripheral white cells, AML Patient A, real time RT-PCR (FIG. 12)): Induction
bone marrow blast count (bone marrow blast count): reduction
dose-dependent induction of IL-6 transcription (Jurkat cells): dose-dependent induction
expression level of other cytokine/chemokines (peripheral white cells; ex vivo/in vivo in patients (data not shown)): either decreased or remained unmodified
induction of transcription of IL-6, IL-8, IL-1b, MIP1b (peripheral white cells; AML patient with response (Patient A) (FIG. 15)): induction
induction of transcription of IL-6, IL-8, IL-1b, MIP1b (peripheral white cells; two AML patients without clinical response (Patient B, C) (FIG. 15)): No such induction
